Data from patent US12458654B2, “Methods of conditioning patients for T cell therapy” (Kite Pharma Inc., priority 2015, dated 2025).

Tests used:
[1] = human, in vivo
[2] = tested on: serum levels of cytokine analytes
Method: T cell products were generated by transduction of autologous lymphocytes with a g-murine retrovirus carrying an anti-CD19 CAR construct gene, followed by expansion to achieve desired cell dose. Anti-CD19 CAR+ T cell product characteristics were evaluated at time of harvest, or after co-culture with CD19+ cells, by flow cytometry and multiplex cytokine analysis of co-culture supernatants. CAR+ T cell co-culture for product characterization was performed with K562-CD19 cells or K562-NGFR control cells, at an effector to target ratio of 1:1. Standard incubation time was 18 hours.
Cytokine and chemokine levels were measured using EMDmillipore Luminex® xMAP® multiplex assays. Data acquisition and analysis were performed using a Luminex 200™ instrument and xPONENT® 3.1 data analysis software. For IL-7, a human IL-7 Quantikine HS ELISA Kit (HS750) was used with samples run neat per manufacturer's guidelines. The frequency of CAR T cells in circulation was measured by a quantitative PCR analysis. Patients were administered a preconditioning regimen comprising of 300 mg/m^2 cyclophosphamide on days −5 and −4, and 30 mg/m^2 fludarabine on days −5, −4, and −3. Patient sera was collected prior to administration of cyclophosphamide and fludarabine between days −12 and −5 (“pre”), immediately before administration of CAR+ T cells on day 0 (“post”) and on select days following CAR+ T cell administration up to day 18. The serum concentrations of GF-CSF, IL-2, MCP-1, IL-6, IL-10, MCP-4, CRP, IFN gamma, Granzyme A, IL-15, IL-5, Granzyme B, IL-8, IP-10, MIP-1b, PLGF, IL-16, TARC, Eotaxin-3, sICAM-1, sVCAM-1, and SAA were measured pre- and post-conditioning and on select days after administration of CAR+ T cells, as shown in FIG. 6.

[3] = tested on: serum levels of cytokine analytes; conditions: in vivo
[4] = 300 mg/m^2 cyclophosphamide, 30 mg/m^2 fludarabine, pre vs day 0

O=P1(N(CCCl)CCCl)NCCCO1 (centres unmarked) [cyclophosphamide]
Incidence of dose limiting toxicity (DLT) [1]: 29%

cyclophosphamide and fludarabine
Serum concentration of CRP following conditioning [2, 4]: significantly increased
Serum concentration of IL-5 following conditioning [2, 4]: Increases
Serum concentration of IL-7 following conditioning [2, 4]: significantly increased
Serum concentration of IL-10 following conditioning [2, 4]: Increases
Serum concentration of IL-15 following conditioning [2, 4]: significantly increased
Serum concentration of IP-10 following conditioning [2, 4]: Increases
Serum concentration of MCP-1 following conditioning [2, 4]: significantly increased
Serum concentration of PLGF following conditioning [2, 4]: significantly increased
Serum concentration of s-ICAM1 following conditioning [2, 4]: Increases
Serum perform after conditioning [2, 4]: decrease
Markers showing changes in a majority of patients, associated with p<0.05 ([2]; FIG. 14, markers measured prior to CAR T cell infusion): 7 out of 41 measured markers
CRP increase, average [3]: about 10 fold
CRP increase, range [3]: essentially no change to an increase of about 25 fold
CRP level in patient sera after conditioning [3]: increased in some patients and remained stable or decreased in others
Change in serum CRP [3]: essentially no change
Change in serum PLGF [3]: only a slight increase
Change in serum VEGF-D [3]: essentially no change
Change in serum sICAM-1 [3]: essentially no change
Decrease of serum MIP-1β [3]: about 50%
IL-15 increase relative to baseline [3]: less than 10 fold
IL-15 increase relative to baseline, average [3]: about 35 fold
IL-15 level in patient sera after conditioning [3]: at least some increase
MCP-1 increase [3]: less than 4 fold
MCP-1 increase, average [3]: about 5 fold
MCP-1 level in patient sera after conditioning [3]: at least some increase
MIP-1 β level in patient sera after conditioning [3]: increased in some patients and remained stable or decreased in others
MIP-10 levels increase, average [3]: about 1.5 fold
MIP-10 levels increase, range [3]: essentially no change to an increase of about 3 fold
PLGF increase, average [3]: about 30 fold
PLGF increase, range [3]: about 2 fold or less to an increase of about over 100 fold
PLGF level in patient sera after conditioning [3]: at least some increase
VEGF-D increase, average [3]: about 3 fold
VEGF-D increase, range [3]: essentially no change to an increase of about 6 fold
VEGF-D level in patient sera after conditioning [3]: increased in some patients and remained stable or decreased in others
sICAM-1 increase, average [3]: about 3 fold
sICAM-1 increase, range [3]: essentially no change to an increase of about 4.5 fold
sICAM-1 level in patient sera after conditioning [3]: increased in some patients and remained stable or decreased in others
Change in serum IP-10 ([3]; ip): essentially no change
IP-10 increase, average ([3]; ip): about 3.5 fold
IP-10 level in patient sera after conditioning ([3]; ip): increased in some patients and remained stable or decreased in others
